The nature of test [1]: analgesic activity, phenylquinone test in mice via subcutaneous route. Format: in vivo. To be noted: for ED50: Mus musculus, sc, mice, subcutaneous, phenylquinone test; for analgesic activity, in words: comparison of enantiomers and racemate. The procedure:
Thirty animals were treated with each product.

In test [2] the target is alpha 1 adrenergic receptors. The experiment in a line: affinity for alpha 1 adrenergic receptors, receptor binding test. To be noted: for IC50: receptor binding; for interference with the adrenergic receptor, in words: comparison with racemate. The text has this: (§1) Since an interference with the adrenergic system is an index of undesirable effects, both the capability of binding to alpha 1 adrenergic receptors, as IC50 (Table 2), and the alphalytic activity (Table 3) of the same compounds have been evaluated.
As far as the receptor binding test is concerned, reference is made to "Molecular Pharmacology", 20, 295-301, (1981).

Test [3] has as its target T1, deferent of rat (Rattus norvegicus).
T1 construct: evaluated on an isolated organ (deferent of rat); from tissue; host or cells: isolated vas deferens of rat
The experiment in a line: alphalytic activity on an isolated organ (deferent of rat). To be noted: isolated deferent of rat; read-out: Alphalytic activity pA2 (converted). The procedure: as §1
(§2) In turn, the alphalytic activity was evaluated on an isolated organ (deferent of rat) according to the technique described in "Clinical and Experimental Pharmacology & Physiology", 6, 275-279, (1979).

For test [4], the target named is T2, deferent of rat (Rattus norvegicus, UniProt P43140).
T2 construct: evaluated on an isolated organ (deferent of rat); from tissue; host or cells: isolated vas deferens of rat
T2 sequence (P43140 1-466): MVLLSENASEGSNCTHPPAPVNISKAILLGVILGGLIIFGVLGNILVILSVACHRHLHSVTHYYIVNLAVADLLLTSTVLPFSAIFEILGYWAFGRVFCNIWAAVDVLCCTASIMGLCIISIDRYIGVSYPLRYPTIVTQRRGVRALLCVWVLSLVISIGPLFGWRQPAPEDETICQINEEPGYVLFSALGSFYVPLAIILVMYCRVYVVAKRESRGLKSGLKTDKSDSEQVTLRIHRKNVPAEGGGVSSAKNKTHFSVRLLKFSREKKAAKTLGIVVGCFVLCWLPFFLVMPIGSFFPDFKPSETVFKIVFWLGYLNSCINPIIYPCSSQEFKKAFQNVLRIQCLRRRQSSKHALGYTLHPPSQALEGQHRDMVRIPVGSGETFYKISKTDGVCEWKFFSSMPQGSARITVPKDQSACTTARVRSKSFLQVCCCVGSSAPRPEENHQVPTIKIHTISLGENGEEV
Described as above. To be noted: comparison of enantiomers and racemate. The procedure: as §1, §2

`CC1CN(c2cccc(Cl)c2)CCN1CCCn1nc2ccccn2c1=O` (racemic) [Racemate, reference compound]: in test [1], the ED50 is > 12.5 mg/kg and the “analgesic activity, in words” value is recorded as “less analgesic activity compared to the single enantiomers”. For the same compound, the IC50 in test [2] is 471 nM. In test [3], the Kb was 20 nM.
Compound `C[C@@H]1CN(c2cccc(Cl)c2)CCN1CCCn1nc2ccccn2c1=O` [(R), (R)-2-[3-[4-(3-chlorophenyl)-1-(2-methyl)-piperazinyl]-propyl]-1,2,4-triazol[4,3-a]-pyridine-3(2H)-one] displayed an ED50 in test [1] of 9.02 mg/kg. Moreover, in test [2], the “interference with the adrenergic receptor, in words” value was “lower than those of racemate” and the IC50 worked out at 533 nM. The Kb in test [3] is 178 nM. Besides, the “alphalytic activity, in words” value in test [4] is “lower than those of racemate”.
As for `C[C@H]1CN(c2cccc(Cl)c2)CCN1CCCn1nc2ccccn2c1=O` [(S), (S)-2-[3-[4-(3-chlorophenyl)-1-(2-methyl)-piperazinyl]-propyl]-1,2,4-triazol[4,3-a]-pyridine-3(2H)-one], in test [1], the ED50 amounted to 7.8 mg/kg and the “analgesic activity, in words” value is “more active than (R) enantiomer”. In test [2], the “interference with the adrenergic receptor, in words” value is “lower than those of racemate” and the IC50 worked out at 981 nM. In test [3], the Kb is 3980 nM. Moreover, the “alphalytic activity, in words” value in test [4] is on record as “lower than those of racemate”. Besides, in test [4] (listed as (S) enantiomer), the “alphalytic activity, in words” value is “lower than that of (R) enantiomer”.

As a reminder, the ED50 is the midpoint of the dose-response relation. Read a high ED50 as a need for a large dose. Broadly, the IC50 is the midpoint of a concentration-inhibition curve. A low value points to greater potency.

(Values after US5817815A, “Pharmacologically active enantiomers” (Angelini Ricerche S.p.A. Societa Consortile, priority 1993, dated 1998).)
